US4294845A, “1,3-Benzodioxin derivatives” (priority 1978, dated 1981)

Legend:
[1] = Acute toxicity in mice (intraperitoneal, DL50); assay type: in vivo; conditions: mouse, in vivo, ip, observed for one week
Method: (§1) The acute toxicity was determined on groups of 5 mice weighing about 18 to 22 g and the test products were intraperitoneally administered in suspension in an aqueous carboxymethylcellulose.

[2] = test system: levels of triglycerides, cholesterol and total lipids; test: Hypolipemiant activity: plasma lipid levels in rats on a saccharose and cholesterol-rich regime, 10 days treatment; assay type: in vivo, male rats of the Sprague Dawley S.P.F. strain; conditions: esophague tube, vs untreated controls
Method: This test was effected on groups of 8 male rats of the Sprague Dawley S.P.F. strain weighing about 200 g and the animals received a regime containing 50% of saccharose and which was rich in cholesterol (1%). The rats were treated over 10 days with the test products which were administered through an esophague tube as a suspension in water containing carboxymethylcellulose. The animals were killed 16 hours after the last administration of the test product by an abdominal puncture and from the blood sample with sodium heparinate, the levels of triglycerides, cholesterol and total lipids were determined by the following methods.
The triglyceride level was determined by the semi-automatic technique of Kessler et al [Automation in Analytical Chemistry, 1965, p. 341] modified by Claude et al [Ann. Biol. Clin., Vol. 26 3-4 (1968), p. 451]. The cholesterol levels were determined by the technique of Levine [Symposium Technicon, Vol. I. (1967), p. 25] adapted to auto-analyzer system I. The nephelometric level of total lipids was determined semi-automatically by the method of Girard et al [Symposium Technicon, 1970]. The variations expressed in percentages of the level of triglycerides, cholesterol and total lipids after administration of the various dosage of the test products in the treated animals as compared to the untreated controls and the results are reported in Table I.

mice = test: Acute toxicity in mice (intraperitoneal, DL50); assay type: in vivo; conditions: observed for one week, 10080 min
Method: as §1

Compound | LD50 at 168 h [1] [mg/kg] | % Variation of levels, Cholesterol ([2]; 1 mg/kg/day) [%] | % Variation of levels, Total Lipids ([2]; 1 mg/kg/day) [%] | % Variation of levels, Triglycerides ([2]; 1 mg/kg/day) [%] | % Variation of levels, Cholesterol ([2]; 2 mg/kg/day) [%] | % Variation of levels, Total Lipids ([2]; 2 mg/kg/day) [%] | % Variation of levels, Triglycerides ([2]; 2 mg/kg/day) [%] | % Variation of levels, Cholesterol ([2]; 5 mg/kg/day) [%] | % Variation of levels, Total Lipids ([2]; 5 mg/kg/day) [%] | % Variation of levels, Triglycerides ([2]; 5 mg/kg/day) [%] | DL50 (mice) [mg/kg]
CC1(c2cccc(Cl)c2)OC(C(=O)O)Oc2ccc(Cl)cc21 (single isomer, unassigned) [21 Isomer A] | ~150 | -11 | -25 | -62 | – | – | – | – | – | – | –
CC1(c2ccccc2)OC(C(=O)O)Oc2ccc(Cl)cc21 (single isomer, unassigned) [17 Isomer A] | ~200 | – | – | – | -43 | -47 | -57 | – | – | – | –
CC1(c2ccccc2)OC(C(=O)O)Oc2ccc(Cl)cc21 (racemic) [Example 1, 6-chloro-4-methyl-4-phenyl-[4H]-1,3-benzodioxin-2-carboxylic acid] | 130 | – | – | – | – | – | – | -22 | -26 | -11 | –
CC1(c2ccccc2)OC(C(=O)O)Oc2ccc(Cl)cc21 (single isomer, unassigned) [18 Isomer A 1 form] | ~250 | – | – | – | -47 | -53 | -53 | – | – | – | –
COC(=O)C1Oc2ccc(Cl)cc2C(C)(c2cccc(Cl)c2)O1 (single isomer, unassigned) [20 Isomer A] | ≤ 1000 | -36 | -32 | -13 | – | – | – | – | – | – | –
CCOC(=O)C1Oc2ccc(Cl)cc2C(C)(c2ccccc2)O1 (single isomer, unassigned) [16 Isomer A] | ~800 | – | – | – | -17 | -25 | -32 | – | – | – | –
CN(C)CCOC(=O)C1Oc2ccc(Cl)cc2C(C)(c2ccccc2)O1 (single isomer, unassigned) [41 Isomer A] | ~200 | – | – | – | – | – | – | -40 | -49 | -43 | –
CC1(c2ccccc2)OC(C(=O)O)Oc2ccc(Cl)cc21 (racemic) [Example 3, 6-chloro-4-methyl-4-phenyl-[4H]-1,3-benzodioxin-2-carboxylic acid] | – | – | – | – | -36 | -38 | -12 | – | – | – | 150
